Experimental data reported in patent US9029546B2, “Pyrazolopyridine kinase inhibitors” (Vertex Pharmaceuticals Incorporated, priority 2008, dated 2015).

Tests used:
[1] = biological target: PKC theta kinase (Homo sapiens, UniProt Q04759); assay: PKC theta coupled-enzyme kinase assay (NADH consumption); type: biochemical; conditions: 240 μM ATP, 30° C.
Method: (§1) An assay buffer solution was prepared which consisted of 100 mM HEPES (pH 7.5), 10 mM MgCl2, 25 mM NaCl, 0.1 mM EDTA and 0.01% Brij. An enzyme buffer containing reagents to final assay concentrations of 0.00001% Triton X-100, 200 μg/mL Phosphatidylserine, 20 μg/mL Diacylglycerol, 360 μM NADH, 3 mM phosphoenolpyruvate, 70 μg/mL pyruvate kinase, 24 μg/mL lactate dehydrogenase, 2 mM DTT, 100 μM substrate peptide (ERMRPRKRQGSVRRRV (SEQ ID NO: 1)) and 18 nM PKC theta kinase was prepared in assay buffer. To 60 μL of this enzyme buffer, in a 384 well plate, was added 2 μL of VRT stock solution in DMSO. The mixture was allowed to equilibrate for 10 mins at 30° C. The enzyme reaction was initiated by the addition of 5 μL stock ATP solution prepared in assay buffer to a final assay concentration of 240 μM. Initial rate data was determined from the rate of change of absorbance at 340 nm (corresponding to stoichiometric consumption of NADH) using a Molecular Devices Spectramax plate reader (Sunnyvale, Calif.) over 15 mins at 30° C. For each Ki determination 12 data points covering the VRT concentration range of 0-20 μM were obtained in duplicate (DMSO stocks were prepared from an initial 10 mM VRT stock with subsequent 1:2 serial dilutions). Ki values were calculated from initial rate data by non-linear regression using the Prism software package (Prism 4.0a, Graphpad Software, San Diego, Calif.).

[2] = biological target: PKC Delta (Homo sapiens, UniProt Q05655); assay: PKC delta coupled-enzyme kinase assay (NADH consumption); type: biochemical; conditions: 240 μM ATP, 30° C.
Sequence of PKC Delta (Q05655 whole entry): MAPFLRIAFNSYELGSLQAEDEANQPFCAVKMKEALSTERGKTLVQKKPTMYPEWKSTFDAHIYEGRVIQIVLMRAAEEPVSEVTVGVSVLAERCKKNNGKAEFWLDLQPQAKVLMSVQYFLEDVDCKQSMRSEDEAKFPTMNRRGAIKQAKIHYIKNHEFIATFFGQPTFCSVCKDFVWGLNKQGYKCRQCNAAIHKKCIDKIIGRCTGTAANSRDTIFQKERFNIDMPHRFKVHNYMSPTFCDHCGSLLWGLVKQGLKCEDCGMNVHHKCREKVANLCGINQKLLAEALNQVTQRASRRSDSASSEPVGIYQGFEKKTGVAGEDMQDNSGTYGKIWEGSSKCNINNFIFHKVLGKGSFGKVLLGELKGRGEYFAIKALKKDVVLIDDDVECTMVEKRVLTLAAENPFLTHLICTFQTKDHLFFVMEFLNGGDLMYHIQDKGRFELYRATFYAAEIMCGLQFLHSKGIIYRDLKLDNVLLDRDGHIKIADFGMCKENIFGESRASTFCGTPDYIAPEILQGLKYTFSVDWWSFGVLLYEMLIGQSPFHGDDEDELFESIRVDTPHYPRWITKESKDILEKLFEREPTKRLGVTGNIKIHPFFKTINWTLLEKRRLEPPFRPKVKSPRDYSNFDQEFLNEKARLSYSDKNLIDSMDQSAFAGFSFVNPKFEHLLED
Method: [The source words this procedure for another target and reports this target under the same test.] as §1

Sequence of PKC theta kinase (Q04759 whole entry): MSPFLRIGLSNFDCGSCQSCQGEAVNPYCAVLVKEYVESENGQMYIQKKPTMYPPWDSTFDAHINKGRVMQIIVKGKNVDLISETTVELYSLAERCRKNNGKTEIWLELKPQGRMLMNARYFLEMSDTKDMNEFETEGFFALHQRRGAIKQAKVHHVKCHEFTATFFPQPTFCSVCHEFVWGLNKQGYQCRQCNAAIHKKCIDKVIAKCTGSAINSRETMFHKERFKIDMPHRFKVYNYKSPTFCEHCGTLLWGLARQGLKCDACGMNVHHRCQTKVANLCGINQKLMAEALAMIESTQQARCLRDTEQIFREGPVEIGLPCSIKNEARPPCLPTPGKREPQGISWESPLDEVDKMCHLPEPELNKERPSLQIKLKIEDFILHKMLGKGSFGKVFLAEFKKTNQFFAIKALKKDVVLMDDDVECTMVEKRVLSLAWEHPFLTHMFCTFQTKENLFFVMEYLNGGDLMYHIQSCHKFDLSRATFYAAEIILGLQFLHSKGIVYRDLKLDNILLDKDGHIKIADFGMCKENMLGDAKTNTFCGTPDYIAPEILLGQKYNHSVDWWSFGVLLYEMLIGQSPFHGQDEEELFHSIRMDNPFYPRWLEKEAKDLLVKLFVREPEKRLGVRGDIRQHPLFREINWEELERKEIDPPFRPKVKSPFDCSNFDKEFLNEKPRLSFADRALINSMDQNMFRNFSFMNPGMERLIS

## Fc1ccc(NC2CNC2)nc1-c1n[nH]c2ncccc12 [Compound 64]
[1]
  Ki: > 700 nM
[2]
  Ki: > 700 nM

## FC(F)(F)c1ccc(NCC2CCCCN2)nc1-c1n[nH]c2ncccc12 (stereo not drawn) [Compound 32]
[1]
  Ki: > 700 nM
[2]
  Ki: > 700 nM

## CC(C)C[C@H](N)CNc1cccc(-c2n[nH]c3ncccc23)n1 [Compound 16]
[1]
  Ki: < 500 nM
[2]
  Ki: < 500 nM

## N#CCNc1ccc(C(F)(F)F)c(-c2n[nH]c3ncccc23)n1 [Compound 62]
[1]
  Ki: > 700 nM
[2]
  Ki: > 700 nM

## c1cc(NCC2CCNCC2)nc(-c2n[nH]c3ncccc23)c1 [Compound 14]
[1]
  Ki: < 500 nM
[2]
  Ki: < 500 nM

## Nc1cc(Cl)cc(Nc2ccc(C(F)(F)F)c(-c3n[nH]c4ncccc34)n2)c1 [Compound 70]
[1]
  Ki: < 500 nM
[2]
  Ki: < 500 nM

## FC(F)(F)c1ccc(NC2CNC2)nc1-c1n[nH]c2ncccc12 [Compound 63]
[1]
  Ki: > 700 nM
[2]
  Ki: > 700 nM

## NCC1CCC(CNc2cccc(-c3n[nH]c4ncccc34)n2)CC1 (stereo not drawn) [Compound 4]
[1]
  Ki: < 500 nM
[2]
  Ki: < 500 nM

## OC[C@H](Nc1ccc(C(F)(F)F)c(-c2n[nH]c3ncccc23)n1)c1ccccc1 [Compound 79]
[1]
  Ki: < 500 nM
[2]
  Ki: < 500 nM

## FC(F)(F)c1ccc(OCCC2CCCCN2)nc1-c1n[nH]c2ncccc12 (stereo not drawn) [Compound 43]
[1]
  Ki: > 700 nM
[2]
  Ki: > 700 nM

## c1cc(NCC2CCCCN2)nc(-c2n[nH]c3ncccc23)c1 (stereo not drawn) [Compound 23]
[1]
  Ki: < 2800 nM
[2]
  Ki: < 2800 nM

## CC(C)C[C@H](N)COc1ccc(C(F)(F)F)c(-c2n[nH]c3ncccc23)n1 [Compound 38]
[1]
  Ki: < 500 nM
[2]
  Ki: < 500 nM

## NCCCNc1cccc(-c2n[nH]c3ncccc23)n1 [Compound 2]
[1]
  Ki: < 500 nM
[2]
  Ki: < 500 nM

## FC(F)(F)c1ccc(NC2CN3CCC2CC3)nc1-c1n[nH]c2ncccc12 (stereo not drawn) [Compound 71]
[1]
  Ki: > 700 nM
[2]
  Ki: > 700 nM

## CC(N)(CO)COc1ccc(C(F)(F)F)c(-c2n[nH]c3ncccc23)n1 (stereo not drawn) [Compound 57]
[1]
  Ki: > 700 nM
[2]
  Ki: > 700 nM

## NCC1CCC(CNc2ccc(C(F)(F)F)c(-c3n[nH]c4ncccc34)n2)CC1 (stereo not drawn) [Compound 24]
[1]
  Ki: < 500 nM
[2]
  Ki: < 500 nM

## FC(F)(F)c1ccc(NC2CCCNC2)nc1-c1n[nH]c2ncccc12 (stereo not drawn) [Compound 26]
[1]
  Ki: > 700 nM
[2]
  Ki: > 700 nM

## CN(CCC#N)c1ccc(C(F)(F)F)c(-c2n[nH]c3ncccc23)n1 [Compound 75]
[1]
  Ki: < 500 nM
[2]
  Ki: < 500 nM

## NC(=O)c1ccccc1Oc1ccc(C(F)(F)F)c(-c2n[nH]c3ncccc23)n1 [Compound 41]
[1]
  Ki: > 700 nM
[2]
  Ki: > 700 nM

## CCN1CCCC(Oc2ccc(C(F)(F)F)c(-c3n[nH]c4ncccc34)n2)C1 (stereo not drawn) [Compound 69]
[1]
  Ki: > 700 nM
[2]
  Ki: > 700 nM

## FC(F)(F)c1ccc(OCC2CCCNC2)nc1-c1n[nH]c2ncccc12 (stereo not drawn) [Compound 46]
[1]
  Ki: > 700 nM
[2]
  Ki: > 700 nM

## c1cc(NC2CCNC2)nc(-c2n[nH]c3ncccc23)c1 (stereo not drawn) [Compound 6]
[1]
  Ki: < 500 nM
[2]
  Ki: < 500 nM

## FC(F)(F)c1ccc(NCC2CCCNC2)nc1-c1n[nH]c2ncccc12 (stereo not drawn) [Compound 31]
[1]
  Ki: > 700 nM
[2]
  Ki: > 700 nM

## CC(C)(C)[C@H](N)COc1ccc(C(F)(F)F)c(-c2n[nH]c3ncccc23)n1 [Compound 72]
[1]
  Ki: > 700 nM
[2]
  Ki: > 700 nM

## FC(F)(F)c1ccc(N[C@@H]2CCc3ccccc32)nc1-c1n[nH]c2ncccc12 [Compound 85]
[1]
  Ki: > 700 nM
[2]
  Ki: > 700 nM

## c1cc(NC2CCNCC2)nc(-c2n[nH]c3ncccc23)c1 [Compound 18]
[1]
  Ki: < 50 nM
[2]
  Ki: < 50 nM

## CCC(CN)(CNc1ccc(C(F)(F)F)c(-c2n[nH]c3ncccc23)n1)c1ccccc1 (stereo not drawn) [Compound 65]
[1]
  Ki: < 500 nM
[2]
  Ki: < 500 nM

## CN(CCO)c1ccc(C(F)(F)F)c(-c2n[nH]c3ncccc23)n1 [Compound 58]
[1]
  Ki: > 700 nM
[2]
  Ki: > 700 nM

## CC(C)(CN)CNc1cccc(-c2n[nH]c3ncccc23)n1 [Compound 10]
[1]
  Ki: < 500 nM
[2]
  Ki: < 500 nM

## CC(CO)Nc1ccc(C(F)(F)F)c(-c2n[nH]c3ncccc23)n1 (stereo not drawn) [Compound 73]
[1]
  Ki: > 700 nM
[2]
  Ki: > 700 nM

## CC[C@H](CO)Nc1ccc(C(F)(F)F)c(-c2n[nH]c3ncccc23)n1 [Compound 86]
[1]
  Ki: > 700 nM
[2]
  Ki: > 700 nM

## CN(C)C(C)(C)COc1ccc(C(F)(F)F)c(-c2n[nH]c3ncccc23)n1 [Compound 52]
[1]
  Ki: > 700 nM
[2]
  Ki: > 700 nM

## NC1CCCC(Nc2cccc(-c3n[nH]c4ncccc34)n2)C1 (stereo not drawn) [Compound 61]
[1]
  Ki: < 50 nM
[2]
  Ki: < 50 nM

## CC(C)CC(O)CNc1ccc(C(F)(F)F)c(-c2n[nH]c3ncccc23)n1 (stereo not drawn) [Compound 15]
[1]
  Ki: > 700 nM
[2]
  Ki: > 700 nM

## O[C@H](CNc1cccc(-c2n[nH]c3ncccc23)n1)c1ccccc1 [Compound 7]
[1]
  Ki: > 700 nM
[2]
  Ki: > 700 nM

## OC[C@H](Cc1ccccc1)Nc1ccc(C(F)(F)F)c(-c2n[nH]c3ncccc23)n1 [Compound 77]
[1]
  Ki: > 700 nM
[2]
  Ki: > 700 nM
